| SMILES | melting point |
| --- | --- |
| Cc1cc2c3c(c1)C(c1ccccc1)C(=O)N3CC(=O)N2 (centres undefined) | 195 to 200 °C |
| CCCN(Cc1ccc(-c2ccccc2-c2nc(=S)o[nH]2)cc1)c1nc(C)ncc1C(=O)OCC | 170 to 172 °C |
| COC(=O)c1ccc(Cl)cc1O | 27 to 30 °C |
| C#CCN(Cc1cc2c(=O)n(CCN(C)C)c(CN3CCCCC3)nc2cc1Cl)c1ccc(C(=O)OC(C)(C)C)cc1 | 75 to 77 °C |
| CS(=O)(=O)c1ccc(-c2cnn(Cc3ccc4cc(F)ccc4n3)c(=O)c2-c2ccc(F)cc2)cc1 | 116 to 119 °C |
| CNCCC1=C(C#N)C(c2cccc3nonc23)c2c[nH]nc2N1 (centres undefined) | 174 °C |
| CC(CNC(=O)OC(C)(C)C)C(=O)NC(CC(=O)OCc1ccccc1)C(N)=O (mixture of isomers) | 135 to 136 °C |
| FC(F)(F)C(c1ccc(Cl)cc1)C(Br)c1ccccc1 (centres undefined) | 143 to 146 °C |
| CN1C2CCC1CC(c1ccc3ccccc3c1)C2 (centres undefined) | 77 to 79 °C |
| CCOc1ccccc1C(O)c1cc(Cl)ccc1N (centres undefined) | 80 to 81 °C |
| Nc1cc(Br)nc(Br)c1 | 184 to 186 °C |
| c1ccc(CN[C@H]2CCCN[C@H]2c2ccc(-c3ccccc3)cc2)cc1 (relative stereo) | > 268 °C |
| CCCCCc1sc(C(=O)OCC)nc1-c1ccccc1 | 51 to 52 °C |
| CCS(=O)C1(Cl)CC2C(Cc3ccccc3)C(=O)N2C1C(=O)OCc1ccccc1 (centres undefined) | 118 to 123 °C |
| CC(C)N1C(CN2CCOCC2)=Cc2cc(S(N)(=O)=O)sc2S1(=O)=O | 196 to 198 °C |
| Cc1oc(-c2cccs2)nc1CCOc1ccc([N+](=O)[O-])cn1 | 126 °C |
| CS(=O)(=O)Nc1cccc(CNC(=O)c2nc3ccccc3c(=O)[nH]2)c1 | 240 to 248 °C |
| c1ccc(CON=C2CC(=NOCc3ccccc3)c3ccccc3-c3ccccc32)cc1 | 112 °C |
| O=C(N1CCc2ccc(S(=O)(=O)F)cc2C1)C(F)(F)F | 99 to 103 °C |
| CCS(=O)(=O)Nc1cc2occc(=O)c2cc1Oc1ccccc1 | 216 to 218 °C |
| CC(COc1ccc2c(c1)C(=O)NC(C)(C)O2)NCc1ccccc1 (centres undefined) | 127 to 129 °C |
| CC1(C)CN2C(=O)c3ccccc3C(O)(c3ccc(F)cc3)C2=N1 (centres undefined) | 168 to 170 °C |
| CC1(C)CCC(C)(C)c2cc(NCc3ccc(C(=O)O)cc3)ccc21 | 225 to 231 °C |
| CN(c1cccc2cc(C3=NCC(C)(CN)S3)[nH]c12)S(=O)(=O)c1cccs1 (centres undefined) | 164 to 165 °C |
| CS(=O)(=O)c1ccc(Oc2ccc(Cl)c(Cl)c2)c(N)c1 | 119 to 121 °C |

| SMILES | melting point |
| --- | --- |
| Cc1c(C(=O)Nc2ccc(OCCCN3CCOCC3)c(C#N)c2)cnn1-c1ccc(Cl)cc1 | 155 to 157 °C |
| CCC1(C)COP(=O)(Cc2ccc([N+](=O)[O-])cc2)OC1 (centres undefined) | 184 to 185 °C |
| NC(=O)CN1C[C@@H]2CCCC[C@@H]2C1=O (relative stereo) | 142 to 144 °C |
| CCCNc1nc(-c2ccccc2)c(-c2ccc(=O)n(C(C)C)n2)s1 | 165 to 166 °C |
| COc1ccc(/C=C/C(=O)CC(=O)/C=C/c2ccc(O)c(F)c2)cc1O | 173 to 176 °C |
| O=C(Cc1cc(C(=O)c2ccc(I)c([N+](=O)[O-])c2)sc1-c1ccccc1)NO | 147 to 151 °C |
| CS(=O)(=O)c1cc(C(=O)O)ccc1Oc1ccc(C(=S)Cc2ccc3ccccc3n2)cc1 | 210 to 214 °C |
| COc1cccc2c(OCCN3CCOCC3)c(-c3ccccc3)c(=O)oc12 | 90 to 91 °C |
| O=C1Nc2c(F)cc(F)cc2C1c1ncnc2nn(C3CCCC3)cc12 (centres undefined) | 296 to 297 °C |
| O=C(O)C1CC(c2ccccc2)=NN1 (centres undefined) | 180 to 182 °C |
| Cc1oc(-c2ccccc2)nc1COc1ccc(COc2ccc(OCc3ccccc3)cc2CC(=O)O)cc1 | 140 to 141 °C |
| NCC1CCc2c(O)cccc2C1 (centres undefined) | 183 to 192 °C |
| CC(=O)NC[C@H]1CN(c2ccc3c(c2)CS(=O)(=O)CC3)C(=O)O1 | 177 to 179 °C |
| [O-][N+]1=Cc2cccc3c2C(C1)c1ccccc1CC3 (centres undefined) | 156 to 158 °C |
| O=C(c1ccc(Cl)cc1)c1c(N2C(=O)c3ccccc3C2=O)sc(Br)c1CN(C1CCCCC1)C1CCCCC1 | 173 to 175 °C |
| Cc1nc(-n2ccc(NC(=O)c3ccccc3)cc2=O)sc1C(=O)NCc1ccccc1 | 246 to 248 °C |
| O=C1C(Cl)=C(N2CCN(c3nc4ccccc4o3)CC2)C(=O)c2nsnc21 | 233 to 235 °C |
| COc1ccc(S(=O)(=O)Nc2ccccc2NC(=O)c2ccc(OCc3ccccc3)cc2)cc1 | 148 to 149 °C |
| OCCc1c[nH]c2cc(-c3cc(Nc4ccc(N5CCOCC5)cn4)c4nccn4c3)ccc12 | 159 to 161 °C |
| CCCC(=O)NC1=CC(=O)c2ccc(C=O)nc2C1=O | 208 to 210 °C |
| CN(C)C1CCN(c2nc(N3CCOCC3)c3ncnc(N(CCC#N)Cc4ccccc4)c3n2)CC1 | 45 to 47 °C |
| Cn1c(CC(=O)O)cc(Cl)c1C(=O)c1ccc(S(C)=O)cc1 (centres undefined) | 222 to 223 °C |
| Cc1cnc(CCCCNc2ncc(Cc3ccc(C)nc3)c(=O)[nH]2)c(Br)c1 | 148 to 151 °C |
| COc1ccc(C(=O)Nc2ccc(F)c(F)c2)cc1NS(=O)(=O)c1cccc(N)c1 | 212 to 214 °C |
| Cc1cc(OCC(F)(F)F)c(N)c(OCC(F)(F)F)n1 | 53.5 to 53.8 °C |

| SMILES | melting point |
| --- | --- |
| COC(=O)c1ccoc1CCNC(=O)C[C@H]1O[C@H](c2cccc(OC)c2OC)c2cc(Cl)ccc2N(CC(C)(C)CO)C1=O | 81 to 83 °C |
| COc1cc(C=CC=O)cc(OC)c1OCc1ccccc1 | 114 to 115 °C |
| NS(=O)(=O)c1ccc(C2CCCC2)cc1 | 158 °C |
| CCCc1cccc(-c2nc(C)cc(Cl)n2)n1 | 77.1 °C |
| O=C1Cc2cc(Cl)ccc2Oc2ccccc21 | 60 to 61 °C |
| NC(=O)c1[nH]c2ccc(Cl)cc2c1S(=O)(=O)c1cc(Cl)cc(Cl)c1 | 258 to 260 °C |
| Cn1ccnc1Sc1ccc(Nc2c(C#N)cnc3cc(/C=C/CCO)ccc23)cc1Cl | 205 to 210 °C |
| NS(=O)(=O)Oc1ccc(F)cc1 | 82.5 to 85.5 °C |
| COC(=O)c1ccc(CCCCc2c(C)cc(C)cc2C)cc1 | 52 to 53 °C |
| O=c1c(O)c(-c2ccco2)oc2ccccc12 | 173 to 174 °C |
| CCCCCCCCCCOCCCN=C=O | 78 to 82 °C |
| CC(C)(C)C(Cc1ccccc1)C(=O)n1ccnc1 (centres undefined) | 90 to 91 °C |
| CS(=O)(=O)c1ccc(-c2cc(F)c(F)cc2-c2ccc3c(c2)OCO3)cc1 | 110 to 111 °C |
| CCOC(=O)CCc1cc(C(=O)c2ccc(C(=O)OCC)cc2)ccc1O | 70 to 71 °C |
| CC(CCc1nnn[nH]1)Cc1ccc(OCc2ccc3ccccc3n2)cc1 (centres undefined) | 75 to 77 °C |
| O=C(O)C=CC=Cc1cc(O)c(O)cc1Cl | 203 to 206 °C |
| CC(=O)Nc1nc(-c2cccnc2)c(-c2ccccc2)s1 | 264 to 267 °C |
| CC(C)[C@H](NC(=O)[C@@H](CSC(=O)c1ccccc1)SC(=O)c1ccccc1)C(=O)N1CCC[C@H]1C(=O)O | 85 to 93 °C |
| CN1CCN(c2cc(=O)c3ccc4ccccc4c3o2)CC1 | 184 to 185 °C |
| CCOC(=O)C1=C(Cl)/C(=N/OS(C)(=O)=O)CC(c2ccc(Cl)c(OC)c2F)N1 (centres undefined) | 60 to 62 °C |
| CCCCCCCCCCCCSc1cc(SCCCCCCCCCCCC)c([N+](=O)[O-])c(C(=O)O)c1 | 74 to 77 °C |
| CCCc1c(C(=O)O)c(=O)cc(-c2ccc(Cl)cc2)n1C | 184 to 187 °C |
| COc1ccc(OC(Cc2ccc(OCCNC(=O)c3ccc(-c4ccccn4)cc3)cc2)C(=O)O)cc1 (centres undefined) | 67.5 to 70 °C |
| CC1(O)C=CC2C3CCC4=CC(=O)CCC4C3C(c3ccc(-c4cccnc4)cc3)CC21C (centres undefined) | 159 °C |
| FC(F)Oc1ccc2nc(NC3=NCC4(CN5CCC4CC5)O3)sc2c1 (centres undefined) | 223 to 225 °C |

| SMILES | melting point |
| --- | --- |
| NC(=O)CNCc1noc([C@H](CCCC2CCCCC2)CC(=O)NO)n1 | 60 to 70 °C |
| O=c1c(Br)c(O)c2cccnc2n1-c1ccccc1 | > 280 °C |
| C=CCc1cc(C=C2N=C(C)OC2=O)ccc1OC(C)=O | 108 to 109 °C |
| CC(=O)Oc1ccc(C=C2CCCc3cc(C)cnc32)cc1OC(C)=O | 100 to 101 °C |
| Cc1cc(NC(=O)CN2CCN(c3ncccc3C#N)CC2)ccc1F | 111 to 113 °C |
| COc1cc(C(=CC#N)c2cc(OC)c(OC)c(OC)c2)ccc1N | 123 to 125 °C |
| O=c1c(Cl)c(Cl)cnn1COCc1ccccc1 | 60 to 64 °C |
| Cc1c(NS(=O)(=O)c2ccccc2)cc(C(C)(C)C)cc1SC1=C(O)CC(CCc2ccc(O)cc2)(C2CCCC2)OC1=O (racemic) | 125 to 127 °C |
| O=C(O)c1cc(Br)ccc1COc1ccc(Br)cc1 | 214 to 215 °C |
| COc1ccc(F)c(-n2c(=O)[nH]c3c(C(N)=O)nc(-c4cccc(O)c4)nc32)c1 | > 260 °C |
| CC1(C)CC2(CC(C)(C)c3ccc(O)cc32)c2cc(O)ccc21 | 215 to 217 °C |
| COC(=O)c1cc(=O)c2oc3ccc(Cl)cc3c(=O)c2n1C | 276 to 278 °C |
| COC(=O)C(C)(C)Cc1c(SC(C)(C)C)c2cc(OC)ccc2n1Cc1ccc(Cl)cc1 | 102 to 103 °C |
| COc1ccc(OC)c2c1CCC(OC(C)=O)(C(C)=O)C2 (centres undefined) | 120 to 122 °C |
| C=CCCOc1ccc(C[C@H](NC(=O)OC(C)(C)C)C(=O)O)cc1 | 148 to 150 °C |
| O=C(NCCO)c1cnc(C(=O)NCCO)s1 | 182 to 184 °C |
| O=C(NC1=NN(c2ccccc2)CC1)C(F)(F)F | 163 to 165 °C |
| COC(=O)c1ccc(N2C(=O)c3ccccc3C2=O)cc1O | 218 to 219 °C |
| COc1cccc(CNC(=O)c2nc3ccc(F)c(OCCc4ccc(-n5cn[nH]c5=O)cc4)c3c(=O)[nH]2)c1 | 196 to 198 °C |
| CCc1cc2[nH]c(=O)c(=O)[nH]c2cc1CC | > 360 °C |
| Oc1ccc2c(ccn2-c2ccnc(N[C@H]3CC[C@H](O)CC3)n2)c1 | 246 to 248 °C |
| CCCCOc1cc2c(nc(O)n2Cc2ccccc2)c(N)n1 | 205 to 208 °C |
| c1ccc(COc2cccc3cc(C4=NCCS4)[nH]c23)cc1 | 129 to 130 °C |
| O=Cc1nc(C(Cl)Cl)cnc1N1C(=O)c2ccccc2C1=O | 145 to 146 °C |

Reference: a melting point compilation (Tetko et al.; mined from patent text by program, amines drawn as free bases though some values may be those of a salt)
